From US5212165A, “Method for rehabilitating the vasorelaxant action of the coronary arteries impaired through atherosclerosis or hypercholesterolemia employing an ACE inhibitor” (E. R. Squibb & Sons, Inc., priority 1989, dated 1993)
Read-outs that look alike come from different tables or passages of the source. No end group written: not given here.

Assays:
[1] = test system: phenylephrine-contracted isolated iliac arteries; test: Acetylcholine-induced relaxation of phenylephrine-contracted isolated iliac arteries from cynomolgus monkeys; design: species or system cynomolgus (Macaca fascicularis) monkeys; settings: for maximum force generated in response to phenylephrine (before acetylcholine): non-responders excluded, mean±SEM; for EC50: Macaca fascicularis, non-responder excluded, Mean ± SEM
Excerpt: (§1) Twenty-four male cynomolgus (Macaca fascicularis) monkeys were divided into four groups of six animals each. During the course of the study, one of the control monkeys was sacrificed due to ill health unrelated to the study. Each group was fed a different diet for six months. The control group ate a normal diet of monkey biscuit. The cholesterol group ate a specially formulated monkey diet containing cholesterol. The cholesterol +low captopril group ate the cholesterol diet supplemented with captopril (50 mg/kg divided into two daily doses). The cholesterol+high captopril group ate the cholesterol diet and a higher total dose of captopril (100 mg/kg divided into two daily doses).
(§2) The monkeys were sedated with an intramuscular injection of ketamine (10 mg/kg), then anesthetized with pentobarbital (25 mg/kg). The iliac arteries were carefully dissected, cleaned of surrounding connective tissue, and refrigerated overnight for use the following day.
(§3) On the day of the experiment, three iliac rings (3 mm wide) from each animal were cut and mounted for isometric force recording. Each ring was attached to a micrometer for the control of muscle length and to a Grass FT.03 force transducer and Grass 7D recorder. The rings were placed in warm (37° C.), oxygenated, physiological salt solution (PSS) of the following composition (in mM): 140.0 NaCl, 4.7 KCl, 1.2 MgSO4, 1.6 CaCl2, 1.2 NaH2 PO4, 5.6 D-glucose, 2.0 2-(N-morpholino)propanesulfonic acid (MOPS, pH 7.4 at 37° C.), and 0.02 Na2 -ethylenediaminetetraacetic acid (EDTA). The rings were stretched to a preload of 5 g during a 2 hour equilibration period, then stimulated with 1 μM phenylephrine to test for viability and relaxed with 100 nM acetylcholine to test for endothelial function. Stock solutions of phenylphrine, acetylcholine, propranolol, and sodium nitroprusside were prepared daily in water; nifedipine stock solutions were prepared daily in ethanol.
(§4) Alpha-adrenoceptor and endothelial cell function were examined in the third ring from each monkey. In the presence of 0.1 μM propranolol, a cumulative concentration-response curve to phenylephrine was obtained, then the phenylephrine was washed out of the baths and the rings were allowed to relax completely. The rings were subsequently contracted with an EC50 concentration of phenylephrine (1 μM) and, following stabilization of the contraction, the rings were treated with increasing concentrations of acetylcholine, followed by 100 nM sodium nitroprusside.
(§5) Data are presented as mean±SEM. The IC50 and EC50 values were estimated by linearly interpolating from the concentration-response curves. The EC50 values for each ring were used to determine the means for each treatment group.
For each monkey, the EC50 for acetylcholine relaxation was calculated by linearly interpolating from the concentration-response curves. When 50% relaxation was not achieved, the value of the EC50 was set to 30 μM a value larger than any of the experimental concentrations of acetylcholine).
Linear contrast of mean ranks in the groups were constructed with a variance estimate for the contrast based on the Kruskal-Wallis statistic (Dunn 1964).
In the analyses, the following coefficients were employed: i) for an overall test, the coefficients were 3 for the cholesterol group, 1 for the control group, -1 for the cholesterol+low captopril group, and -3 for the cholesterol+high captopril group, based on prior expectations of likely results; ii) for a test of the cholesterol effect, the coefficients were 1 for the cholesterol group, -1 for the control group, 0 for the cholestrol+low captopril group, and 0 for the cholesterol+high captopril group; iii) for a test of the captopril effect, the coefficients were 0 for the cholesterol group, 1 for the […], 0 for the cholesterol+low captopril group, and -1 for the cholesterol+high captopril group.
All statistical results reported are based on one-sided tests. […]

[2] = test system: alpha-adrenoceptor (isolated iliac arteries); test: Contractile responses to phenylephrine of isolated iliac arteries from cynomolgus monkeys; design: species or system cynomolgus (Macaca fascicularis) monkeys; settings: Mean ± SEM; for EC50: Macaca fascicularis, read-out: EC50 (phenylephrine-induced contraction)
Excerpt: as §1, §2, §3, §4, §5
Phenylephrine concentration-response curves were obtained in iliac rings from all groups of monkeys.

[3] = test system: vascular relaxation in response to EN-D (ACh) and EN-I (Na nitroprusside) agonists; settings: rats, cited from earlier work; for vascular relaxations in response to EN-D (ACh) and EN-I (Na nitroprusside) agonists: oral
[4] = test system: rabbit or human platelets; settings: in vitro; cited from earlier work
[5] = test system: guinea pig or rat lungs; settings: infusion through guinea pig or rat lungs; cited from earlier work
[6] = test system: rabbit veins; settings: in vitro; cited from earlier work
[7] = test system: rat mesenteric veins; settings: cited from earlier work
[8] = test system: rat stomach; settings: in vitro; cited from earlier work
[9] = test system: voltage-dependent calcium channels (iliac rings); test: Relaxation responses to nifedipine of CaCl2-contracted iliac rings from cynomolgus monkeys; design: species or system cynomolgus (Macaca fascicularis) monkeys; settings: Macaca fascicularis, contracted with 2.5 mM CaCl2 in K^+ PSS, mean±SEM
Excerpt: as §1, §2, §3
(§6) The voltage-dependent calcium channels were studied in one ring from each monkey. The protocol consisted of depleting the cells of calcium by exposing the rings to a Ca-free, EGTA (ethylene glycol-bis(β-aminoethyl ether)N,N,N',N'-tetraacetic acid) PSS (omission of CaCl2 and addition of 0.1 mM EGTA) for 30 minutes. The EGTA was subsequently removed from the tissues with three washes of Ca-free PSS (simple omission of CaCl2). Following that, the rings were bathed in Ca-free, K^+ PSS (omission of CaCl2 and isoosmotic substitution of KCl for NaCl such that the KCl concentration was 110 mM) for 30 minutes. A CaCl2 concentration-response curve was obtained by replacing the bath solution with K^+ PSS containing incremental increases in CaCl2 concentration (0.1, 0.3, 0.5, 1.0, 1.25, 1.6, and 2.5 mM). The maximal contractions, in response to 2.5 mM CaCl2, were then relaxed incrementally with nifedipine. Another iliac ring (fade control) from each monkey was subjected to the same protocol with the exception that the strips were allowed to remain contracted and the nifedipine concentration-response curve was not obtained. Some fade of the CaCl2 -induced force was observed over the time period required for the nifedipine concentration-response curve. This fade was accounted for by decreasing the amount of relaxation observed upon addition of nifedipine by the amount of fade observed in the time control from the same monkey.
Data are presented as mean±SEM. The IC50 and EC50 values were estimated by linearly interpolating from the concentration-response curves. […]

[10] = test system: isolated rat hearts; settings: interaction with ARG-I, ARG-II and BK; Schoelkens et al; cited from earlier work
[11] = test system: K^+ depolarized arteries (iliac rings); test: Contractile responses to CaCl2 in K^+ depolarized iliac rings from cynomolgus monkeys; design: species or system cynomolgus (Macaca fascicularis) monkeys; settings: Mean ± SEM
Excerpt: as §1, §2, §3, §6, §5
Concentration-response curves to CaCl2 in K^+ depolarized rings were obtained following depletion of tissue calcium by repeated washing in Ca-free PSS first with, then without, EGTA. There were no differences in the responses to CaCl2 among any of the treatment groups (Table 1).

[12] = test system: acute cerebral arteriospasm; settings: after subarachnoid hemorrhage, dog, angiographic; cited from earlier work
[13] = test system: delayed cerebral vasospasm of the basilar artery and its branches; settings: by injection; Gavras et al; cited from earlier work
[14] = test system: delayed cerebral arteriospasm; settings: cited from earlier work
[15] = test system: isolated aorta from hypertensive rats; settings: cited from earlier work
[16] = test system: angina patients; settings: 12 angina patients; Thuermann et al; cited from earlier work

CNC[C@H](O)c1cccc(O)c1 [phenylephrine]
maximum force generated in response to phenylephrine (before acetylcholine) ([1]; cholesterol group): 11.0 ± 2.6 g | maximum force generated in response to phenylephrine (before acetylcholine) ([1]; control group): 14.3 ± 1.4 g | Max Force (phenylephrine-induced contraction) ([2]; Cholesterol group): 17.3 ± 3.3 g | Max Force (phenylephrine-induced contraction) ([2]; Control group): 22.5 ± 1.6 g | EC50 ([2]; Cholesterol group): 1200 ± 300 nM | EC50 ([2]; Control group): 800 ± 100 nM

Oc1cccc(O)c1O [pyrogallol]
effect on ACh-induced relaxation [3]: did inhibit ACh-induced relaxations

endothelin: endothelin (EL) (CSCSSLMDKECVYFCHLDIIW; ends and bridges not checked; cysteine pairing not given here; UniProt P05305 53-73, looked up)
platelet aggregation [4]: did not aggregate rabbit or human platelets or prevent their aggregation | release of PG12 and TXA2 [5]: release PG12 and TXA2 | contraction of rabbit veins [6]: contracted rabbit veins | vasoconstriction ([7]; at higher doses): vasoconstriction | dilatation of rat mesenteric veins ([7]; via EDRF release): dilated rat mesenteric veins | contraction of rat stomach [8]: contracted rabbit veins and rat stomach

COC(=O)C1=C(C)NC(C)=C(C(=O)OC)C1c1ccccc1[N+](=O)[O-] [nifedipine]
IC50 ([9]; cholesterol group): 22.8 ± 5.6 nM | IC50 ([9]; cholesterol+high captopril group): 11.5 ± 1.8 nM | IC50 ([9]; cholesterol+low captopril group): 18.8 ± 6.6 nM | IC50 ([9]; control group): 11.4 ± 2.3 nM

CCOC(=O)[C@H](CCc1ccccc1)N[C@@H](C)C(=O)N1[C@H](C(=O)O)C[C@@H]2CCC[C@@H]21 [ramipril]
local cardioprotective actions [10]: BK is involved in the local cardioprotective actions of RP

[Ca+2].[Cl-].[Cl-] [CaCl2]
EC50 ([11]; Cholesterol group): 200000 ± 30000 nM | Max Force (CaCl2) ([11]; Cholesterol group): 18.2 ± 1.6 g | EC50 ([11]; Control group): 140000 ± 10000 nM | Max Force (CaCl2) ([11]; Control group): 18.5 ± 1.1 g

CC(=O)OCC[N+](C)(C)C [acetylcholine]
EC50 ([1]; Cholesterol group, N 5, EC50 set at 30 μM if <50% relaxation): 16200 ± 7200 nM | EC50 ([1]; Control group, N 4): 300 ± 100 nM

NNc1nncc2ccccc12 [hydralazine]
vascular relaxations in response to EN-D (ACh) and EN-I (Na nitroprusside) agonists [3]: differentially affected vascular relaxations

CC[C@H](C)[C@H](NC(=O)[C@H](CCC(N)=O)NC(=O)[C@@H]1CCCN1C(=O)[C@H](CCCNC(=N)N)NC(=O)[C@@H]1CCCN1C(=O)[C@H](Cc1c[nH]c2ccccc12)NC(=O)[C@@H]1CCC(=O)N1)C(=O)N1CCC[C@H]1C(=O)N1CCC[C@H]1C(=O)O [teprotide]
effect on acute cerebral arteriospasm [12]: effective | release of delayed cerebral vasospasm [13]: partial or total release | effect on delayed established cerebral arteriospasm ([14]; dog, in vivo): could reverse that spasm as well

CCOC(=O)C(CCc1ccccc1)N[C@@H](C)C(=O)N1CCC[C@H]1C(=O)O (stereo partly drawn) [enalapril, N-(1-ethoxycarbonyl-3-phenylpropyl)-L-alanyl-L-proline]
normalization of relaxation responses and prevention of hypertension ([15]; P.o., salt-induced hypertension, rat): ineffective | anti-ischemic effect [16]: shown to have an anti-ischemic effect | vascular relaxations in response to EN-D (ACh) and EN-I (Na nitroprusside) agonists [3]: differentially affected vascular relaxations

COc1ccc2c(c1)c(CC(=O)O)c(C)n2C(=O)c1ccc(Cl)cc1 [Indomethacin]
effect on relaxation responses ([15]; isolated aorta, hypertensive and normotensive rats): unaffected | effect on ACh-induced relaxation [3]: did not prevent the effect of ACh

C[C@H](N[C@@H](CCc1ccccc1)C(=O)O)C(=O)N1CCC[C@H]1C(=O)O [MK-422]
restoring arterial width in delayed cerebral arteriospasm ([14]; four dogs, injectable form, unpublished data, preliminary): at least as effective as teprotide
